We go through twelve compounds from patent EP0975604B1, “PYRIDAZINONES AS INHIBITORS OF CYCLOOXYGENASE-2” (MERCK FROSST CANADA & CO., priority 1997, dated 1998).

By IC50 is commonly meant the point on the concentration scale where inhibition reaches its midpoint.

The target of experiment [1] is T1, COX-2 (Homo sapiens, UniProt P35354).
T1 construct: endogenous in cells; host or cells: fresh heparinized human whole blood from volunteers, induced with LPS
T1 sequence (P35354 18-604): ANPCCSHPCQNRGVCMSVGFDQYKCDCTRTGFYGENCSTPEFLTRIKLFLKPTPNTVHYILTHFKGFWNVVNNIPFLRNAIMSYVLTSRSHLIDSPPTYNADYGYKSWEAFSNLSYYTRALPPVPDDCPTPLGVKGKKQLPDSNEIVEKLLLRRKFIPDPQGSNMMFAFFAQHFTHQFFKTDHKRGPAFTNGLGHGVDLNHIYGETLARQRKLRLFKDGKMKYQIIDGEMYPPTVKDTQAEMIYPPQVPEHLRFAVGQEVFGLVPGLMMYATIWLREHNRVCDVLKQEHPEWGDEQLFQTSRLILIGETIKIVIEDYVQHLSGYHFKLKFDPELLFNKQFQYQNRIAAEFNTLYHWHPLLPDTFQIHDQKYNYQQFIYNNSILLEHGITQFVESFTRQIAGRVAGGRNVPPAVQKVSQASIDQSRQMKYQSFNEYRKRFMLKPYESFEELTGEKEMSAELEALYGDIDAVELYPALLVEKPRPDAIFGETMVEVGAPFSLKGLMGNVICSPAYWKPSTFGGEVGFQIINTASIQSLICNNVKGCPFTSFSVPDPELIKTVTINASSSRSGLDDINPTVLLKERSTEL
Put plainly: Human whole blood assay, COX-2 (LPS-induced PGE2 production). In kind it is cell-based. The conditions noted are these: 24 hours at 37°C, read-out: COX-2 (IC50 µM) HWB. An excerpt: (§1) As well, platelets in whole blood contain a large amount of the COX-1 enzyme. Immediately following blood clotting, platelets are activated through a thrombin-mediated mechanism. This reaction results in the production of thromboxane B2 (TxB2) via activation of COX-1. Thus, the effect of test compounds on TxB2 levels following blood clotting can be examined and used as an index for COX-1 activity. Therefore, the degree of selectivity by the test compound can be determined by measuring the levels of PGE2 after LPS induction (COX-2) and TxB2 following blood clotting (COX-1) in the same assay.
Fresh blood is collected in heparinized tubes by venipuncture from both male and female volunteers. The subjects have no apparent inflammatory conditions and have not taken any NSAIDs for at least 7 days prior to blood collection. Plasma is immediately obtained from a 2mL blood aliquot to use as blank (basal levels of PGE2).

Experiment [2] addresses T1, COX-2. Put plainly: Whole cell assay for COX-2 using CHO transfected cell line (CHO [hCOX-2]). In kind it is cell-based. The following applies: CHO[hCOX-2] cells, 10 µM AA, PGE2 synthesis. As for the experimental part: Chinese hamster ovary (CHO) cell lines which have been stably transfected with an eukaryotic expression vector pCDNAIII containing either the human COX-1 or COX-2 cDNA's are used for the assay. These cell lines are referred to as CHO [hCOX-1] and CHO [hCOX-2], respectively. […] Cells (0.3 x 10^6 cells in 200 µl) are preincubated with 3 µl of the test drug or DMSO vehicle for 15 min at 37°C. […] Cells are then challenged in the presence or absence of drug with the AA/HBSS solution to yield a final concentration of 0.5 µM AA in the CHO[hCOX-1] assay and a final concentration of 10 µM AA in the CHO[hCOX-2] assay. […] The samples are centrifuged at 300 x g at 4°C for 10 min, and an aliquot of the clarified supernatant is appropriately diluted for the determination of PGE2 levels using an enzyme-linked immunoassay for PGE2 (Correlate PGE2 enzyme immunoassay kit, Assay Designs, Inc.). Cyclooxygenase activity in the absence of test compounds is determined as the difference in PGE2 levels of cells challenged with arachidonic acid versus the PGE2 levels in cells mock-challenged with ethanol vehicle. Inhibition of PGE2 synthesis by test compounds is calculated as a percentage of the activity in the presence of drug versus the activity in the positive control samples.
(§2) In the assay, inhibition is determined by measuring the amount of prostaglandin E2 (PGE2) synthesized in the presence of arachidonic acid, cyclooxygenase-1 or cyclooxygenase-2 and a putative inhibitor.

The target of experiment [3] is T2, COX-1 (Homo sapiens, UniProt P23219). Nature of the experiment: Assay of COX-1 activity from U937 cell microsomes. The experiment is classed as biochemical. Set-up: endogenous in cells; host or cells: U937 cells, 100,000 x g microsomal pellet. The conditions noted are these: PGE2, read-out: COX-1 (IC50 µM) U-937. As for the experimental part:
U 937 cells are pelleted by centrifugation at 500 x g for 5 min and washed once with phosphate-buffered saline and repelleted. Cells are resuspended in homogenization buffer consisting of 0.1 M Tris-HCl, pH 7.4, 10 mM EDTA, 2 µg/ml leupeptin, 2 µg/ml soybean trypsin inhibitor, 2 µg/ml aprotinin and 1 mM phenyl methyl sulfonyl fluoride. The cell suspension is sonicated 4 times for 10 sec and is centrifuged at 10,000 x g for 10 min at 4° C. The supernatant is centrifuged at 100,000 x g for 1 hr at 4 °C. The 100,000 x g microsomal pellet is resuspended in 0.1 M Tris-HCl, pH 7.4, 10 mM EDTA to approximately 7 mg protein/ml and stored at -80° C.
Assays are performed in duplicate in a final volume of 250 µl. Initially, 5 µl of DMSO vehicle or drug in DMSO are added to 20 µl of 0.1 M Tris-HCl buffer, pH 7.4 containing 10 mM EDTA in wells of a 96-deepwell polypropylene titre plate. 200 µl of the microsomal preparation are then added and pre-incubated for 15 min at room temperature before addition of 25 µl of […] arachidonic acid in […] Tris-HCl and 10 mM EDTA, pH 7.4. Samples are incubated for 40 min at room temperature and the reaction is stopped by the addition of 25 µl of 1 N HCl. Samples are neutralized with 25 µl of 1 N NaOH prior to quantitation of PGE2 content by radioimmunoassay (Dupont-NEN or Amersham assay kits). Cyclooxygenase activity is defined as the difference between PGE2 levels in samples incubated in the presence of arachidonic acid and ethanol vehicle.
as §2

In experiment [4] the target is T2, COX-1. Nature of the experiment: Human whole blood assay, COX-1 (clotting-induced TxB2 production). The experiment is classed as cell-based. The following applies: 1 hour at 37°C, read-out: COX-1 (IC50 µM) HWB. Set-up: endogenous in cells; host or cells: platelets in fresh human whole blood left to clot. On the procedure:
as §1, with “Human whole blood provides a protein and cell-rich milieu appropriate for the study of biochemical efficacy of anti-inflammatory compounds such as selective COX-2 inhibitors. […] This is consistent with the observation that COX-2 inhibitors have no effect on PGE2 production in normal blood. These inhibitors are active only after incubation of human whole blood with LPS, which induces COX-2. This assay can be used to evaluate the inhibitory effect of selective COX-2 inhibitors on PGE2 production. As” for “As”
Fresh blood is collected into vacutainers containing no anticoagulants. Aliquots of 500µL are immediately transferred to siliconized microcentrifuge tubes preloaded with 2µL of either DMSO or a test compound at final concentrations varying from 10nM to 30µM. […]

T2 sequence (P23219 24-599): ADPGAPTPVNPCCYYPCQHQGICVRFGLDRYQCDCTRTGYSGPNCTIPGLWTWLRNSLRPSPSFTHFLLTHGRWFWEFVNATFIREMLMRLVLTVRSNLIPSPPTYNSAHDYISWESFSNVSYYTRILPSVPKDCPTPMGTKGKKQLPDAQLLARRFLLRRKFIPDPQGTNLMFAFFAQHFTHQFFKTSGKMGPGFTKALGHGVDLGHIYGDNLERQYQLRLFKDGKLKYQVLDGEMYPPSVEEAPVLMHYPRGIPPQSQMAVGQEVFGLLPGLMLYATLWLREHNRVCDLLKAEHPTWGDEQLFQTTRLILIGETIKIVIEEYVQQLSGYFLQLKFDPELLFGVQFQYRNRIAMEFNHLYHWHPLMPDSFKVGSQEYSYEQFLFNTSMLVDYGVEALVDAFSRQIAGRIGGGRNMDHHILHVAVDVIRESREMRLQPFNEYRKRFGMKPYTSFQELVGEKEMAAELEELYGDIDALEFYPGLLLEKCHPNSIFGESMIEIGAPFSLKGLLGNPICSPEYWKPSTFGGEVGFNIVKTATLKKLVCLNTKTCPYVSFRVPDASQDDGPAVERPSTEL

In the case of `CS(=O)(=O)c1ccc(-c2cnn(-c3ccccc3)c(=O)c2-c2ccccc2)cc1` [Example 1, 5-(4-Methylsulfonyl)phenyl-2-phenyl-4-phenyl-2H-pyridazin-3-one], the IC50 on COX-2 [1] was 4.7 µM; on COX-2 [2] it was 0.08 µM.

As for `Cn1ncc(-c2ccc(S(C)(=O)=O)cc2)c(-c2ccccc2)c1=O` [Example 2, 2-Methyl-5-(4-methylsulfonyl)phenyl-4-phenyl-2H-pyridazin-3-one], the IC50 at COX-2 [1] was 21 µM; at COX-2 [2] it was 0.7 µM.

Consider `CS(=O)(=O)c1ccc(-c2cnn(CC3CC3)c(=O)c2-c2ccccc2)cc1` [Example 3, 2-Cyclopropylmethyl-5-(4-methylsulfonyl)phenyl-4-phenyl-2H-pyridazin-3-one], for which the results for the IC50 at COX-2 [1], against COX-2 [2] and on COX-1 [3] were 1.3 µM, 0.07 µM and more than 10 µM, respectively.

`CS(=O)(=O)c1ccc(-c2cnn(CC(F)(F)F)c(=O)c2-c2ccccc2)cc1` [Example 4, 5-(4-Methylsulfonyl)phenyl-4-phenyl-2-(2,2,2-trifluoroethyl)-2H-pyridazin-3-one]: the IC50 at COX-2 [1] was 11.1 µM; on COX-2 [2], 0.5 µM; at COX-1 [3], more than 10 µM.

As to `CS(=O)(=O)c1ccc(-c2cnn(Cc3ccccc3)c(=O)c2-c2ccccc2)cc1` [Example 5, 2-Benzyl-5-(4-methylsulfonyl)phenyl-4-phenyl-2H-pyridazin-3-one], the IC50 was more than 50 µM on COX-1 [4] and more than 10 µM at COX-1 [3].

In the case of `CC(C)n1ncc(-c2ccc(S(C)(=O)=O)cc2)c(-c2ccccc2)c1=O` [Example 6, 2-Isopropyl-5-(4-methylsulfonyl)phenyl-4-phenyl-2H-pyridazin-3-one], the IC50 was 2.6 µM at COX-2 [1], 0.6 µM on COX-2 [2] and more than 10 µM on COX-1 [3].

As for `CS(=O)(=O)c1ccc(-c2cnn(CC3CC3)c(=O)c2-c2ccc(F)c(F)c2)cc1` [Example 7, 2-Cyclopropylmethyl-4-(3,4-difluorophenyl)-5-(4-methylsulfonyl)phenyl-2H-pyridazin-3-one], the IC50 was 3.2 µM on COX-2 [1], 0.16 µM against COX-2 [2] and more than 10 µM on COX-1 [3].

Take `CS(=O)(=O)c1ccc(-c2cnn(Cc3ccccn3)c(=O)c2-c2ccccc2)cc1` [Example 8, 5-(4-Methylsulfonyl)phenyl-4-phenyl-2-(2-pyridylmethyl)-2H-pyridazin-3-one]: the figures for the IC50 on COX-2 [1], at COX-2 [2] and on COX-1 [3] were more than 33 µM, approximately 2 µM and more than 10 µM, respectively.

As for `CS(=O)(=O)c1ccc(-c2cnn(Cc3ccccc3)c(=O)c2-c2ccc(F)c(F)c2)cc1` [Example 9, 2-Benzyl-4-(3,4-difluorophenyl)-5-(4-methylsulfonyl)phenyl-2H-pyridazin-3-one], the IC50 on COX-2 [1] is 1.9 µM; on COX-2 [2], 0.04 µM; at COX-1 [3], 3 to 10 µM.

Take `CS(=O)(=O)c1ccc(-c2cnn(Cc3ccc(F)cc3)c(=O)c2-c2ccccc2)cc1` [Example 10, 2-(4-Fluorobenzyl)-5-(4-methylsulfonyl)phenyl-4-phenyl-2H-pyridazin-3-one]: the IC50 was 0.9 µM at COX-2 [1], 0.17 µM against COX-2 [2] and more than 10 µM at COX-1 [3].

`COC(=O)Cn1ncc(-c2ccc(S(C)(=O)=O)cc2)c(-c2ccccc2)c1=O` [Example 11, 2-Carbomethoxymethyl-5-(4-methylsulfonyl)phenyl-4-phenyl-2H-pyridazin-3-one]: the figures for the IC50 at COX-2 [1], at COX-2 [2] and on COX-1 [3] were 9.2 µM, 5 µM and more than 10 µM, respectively.

In the case of `CS(=O)(=O)c1ccc(-c2cnn(Cc3ccccc3)c(=O)c2-c2ccc(F)cc2)cc1` [Example 12, 2-Benzyl-4-(4-fluorophenyl)-5-(4-methylsulfonyl)phenyl-2H-pyridazin-3-one], at COX-1 [3], the IC50 lay in the range of 3 to 10 µM.
